Results as given in paper PMC6990646 (ACS Omega, 2020).
In brackets after ≈: the same amount, converted by molar mass. Several values for one entry are separate records, joined by “and”; a condition that tells them apart may be missing. Identical values can stand only once.

Tests used:
Huh 7.5 cell line = assay: Cytotoxicity test on Huh 7.5 cell line; assay type: cell-based; settings: HCVcc genotype 4 columns; host cells Huh 7.5
FRHK-4 cell line = assay: Cytotoxicity test on FRHK-4 cell line; assay type: cell-based; settings: hepatitis A virus HM 175 columns; host cells FRHK4
[1] = system: ED-43/SG-Feo (VYG) replicon of HCV genotype 4a; assay: Antiviral bioassay against ED-43/SG-Feo; assay type: cell-based
HAdV7 = assay: Plaque reduction assay against adenovirus 7; assay type: cell-based, human adenovirus type 7
Hep2 cell line = assay: Cytotoxicity test on Hep2 cell line; assay type: cell-based; settings: adenovirus type 7 columns; host cells Hep-2
HAV HM175 = assay: Plaque reduction assay against HAV HM175; assay type: cell-based, hepatitis A virus HM 175; settings: hepatitis A virus HM 175, plaque reduction
Vero cell line = assay: Cytotoxicity test on Vero cell line; assay type: cell-based; settings: herpes simplex virus table; host cells Vero

O=C(CNc1nc(NS(=O)(=O)c2ccccc2)ncc1-c1nc2ccccc2s1)c1ccc(Br)cc1 [9a, N-(5-(Benzo[d]thiazol-2-yl)-4-((2-(4-bromophenyl)-2-oxoethyl)amino)pyrimidin-2-yl)benzenesulfonamide]
CC50 (Huh 7.5 cell line): 250 µg/mL (≈ 431 µM) | CC50 (FRHK-4 cell line): 240 µg/mL (≈ 413 µM) | IC50 (HSV-1; herpes simplex virus, plaque reduction): 63 µg/mL (≈ 109 µM) | mean % of reduction, herpes simplex virus (HSV-1; nontoxic dose of compound): 90% and 90 ± 2.5% | IC50 ([1]; HCVcc genotype 4): 120 µg/mL (≈ 207 µM) | mean % of reduction, HCVcc genotype 4 ([1]; nontoxic dose of compound): 50 ± 0.9% | IC50 (HAdV7; adenovirus type 7, plaque reduction): 120 µg/mL (≈ 207 µM) | mean % of reduction, adenovirus type 7 (HAdV7; nontoxic dose of compound): 50 ± 0.9% | CC50 (Hep2 cell line): 260 µg/mL (≈ 448 µM) | IC50 (HAV HM175): 78 µg/mL (≈ 134 µM) | CC50 (Vero cell line): 270 µg/mL (≈ 465 µM)
